# Measurements: paper PMC6983046, “Meroterpenoids from the Fungus Ganoderma sinensis and First Absolute Configuration Clarification of Zizhine H” (Molecules, 2019)
# How the values were obtained:
# [1] = Cell viability (CCK8) assay, HDF normal cells; format: cell-based, human; details: human, HDF cells (normal human embryonic lung fibroblasts), CCK8, 48 h
# Method: (§1) All cell lines were purchased from the Cell Bank of China Science Academy (Shanghai, China) and maintained in Dulbecco’s Modified Eagle Medium (DMEM) supplemented with 10% fetal bovine serum and 100 U/mL penicillin-streptomycin, and incubated at 37 °C in an atmosphere of 5% CO2. Cell viability was evaluated by the CCK8 assay kit (Dojindo Laboratories, Tokyo, Japan) according to the manufacturer’s instructions. Exponentially growing cells were seeded at 2–8 × 10^3 cells per well in 96-well culture plates for 24 h. Cells were exposed to increasing concentrations (0–80 μM) of 4, 5, 6, or 5-FU for 48 h. The equal volume of DMSO was used as the solvent control. CCK8 solution (10 μL) was added to each well and incubated for another 1–4 h. Light absorbance of the solution was measured at 450 nm (Epoch 2; BioTek Instruments, Inc. Winooski, VT, USA). The IC50 values were calculated using the GraphPad prism 7 and analyzed by fitting a curve using nonlinear regression. page 53: Figure S63. The calculated and the experimental ECD spectra of 5 and 6. Figure S64. Cytotoxic effects of compound-4,compound-5, compound-6 and 5-FU on human cancer cells (A, B, C) and normal cells (D) Cells were treated with various concentrations of compound-4,compound-5, compound-6 and 5-FU for 48 h. Cytotoxic effect of the compounds was determined by CCK8 assay. Percentages of viable cells were calculated by comparing treated and solvent control cells. Data are the mean ± S.D. of three replicates. […]
# [2] = system: KYSE30: human esophageal cancer cells; experiment: Cell viability (CCK8) assay, KYSE30; format: cell-based; details: for cytotoxic activity (cells sensitive to compound), KYSE30: result in words
# Method: as §1
# [3] = system: A549: human lung cancer cells; experiment: Cell viability (CCK8) assay, A549; format: cell-based; details: for IC50: CCK8, 48 h
# Method: as §1
# [4] = system: BGC-823: human gastric cancer cells; experiment: Cell viability (CCK8) assay, BGC-823; format: cell-based; details: BGC-823 cells; for IC50: CCK8, 48 h; for cytotoxic activity (cells sensitive to compound), BGC-823: result in words
# Method: as §1
# [5] = system: HDF: normal human embryonic lung fibroblasts; experiment: Cell viability (CCK8) assay, HDF normal cells; format: cell-based; details: CCK8, 48 h
# Method: as §1
# [6] = Homo sapiens, KYSE-30, CCK8, 48 h
Compound,IC50 at 48 h [1],"IC50 [2, 6]",IC50 [3],"IC50 ([3]; Homo sapiens, A549, 48 h)","cytotoxic activity (cells sensitive to compound), A549 ([3]; result in words)",IC50 ([4]; Homo sapiens),"cytotoxic activity (cells sensitive to compound), KYSE30 [2]","cytotoxic activity (cells sensitive to compound), BGC-823 [4]",IC50 [5],"IC50 ([2]; CCK8, 48 h)",IC50 [4]
"COC(=O)/C(=C\C(=O)c1cc(O)ccc1O)CC/C=C(\CO)CC/C=C(\C)COC(=O)/C=C/c1ccc(O)cc1 [Compound 4, (2Z,5Z,9E)-methyl 2-(2-(2,5-dihydroxyphenyl)-2-oxoethylidene)-6-(hydroxymethyl)-11-(((E)-3-(4-hydroxyphenyl)acryloyl)oxy)-10-methylundeca-5,9-dienoate]",> 160 µM,> 160 µM,72.1 ± 8.7 µM,63.4 to 80.8 µM,sensitive,> 160 µM,,,,,
"CC(=CCCC1=CCC[C@@](CC(=O)c2cc(O)ccc2O)(C(=O)O)OC1)CO [(−)-1, (R,E)-2-(2-(2,5-dihydroxyphenyl)-2-oxoethyl)-6-(5-hydroxy-4-methylpent-3-en-1-yl)-2,3,4,7-tetrahydrooxepine-2-carboxylic acid]",> 160 µM,> 160 µM,,> 160 µM,,> 160 µM,,,,,
"CC(=CCCC1=CCC[C@](CC(=O)c2cc(O)ccc2O)(C(=O)O)OC1)CO [(+)-1, (S,E)-2-(2-(2,5-dihydroxyphenyl)-2-oxoethyl)-6-(5-hydroxy-4-methylpent-3-en-1-yl)-2,3,4,7-tetrahydrooxepine-2-carboxylic acid]",> 160 µM,> 160 µM,,> 160 µM,,> 160 µM,,,,,
"C/C(=C/CC/C(=C/C(=O)c1cc(O)ccc1O)C(=O)O)CO [Compound 7, (2Z,5Z)-2-(2-(2,5-dihydroxyphenyl)-2-oxoethylidene)-7-hydroxy-6-methylhept-5-enoic acid]",> 160 µM,> 160 µM,,> 160 µM,,> 160 µM,,,,,
"C/C(=C\CCC1=CCC[C@](CC(=O)c2cc(O)ccc2O)(C(=O)O)OC1)COC(=O)/C=C/c1ccc(O)cc1 [(+)-2, (S)-2-(2-(2,5-dihydroxyphenyl)-2-oxoethyl)-6-((E)-5-(((E)-3-(4-hydroxyphenyl)acryloyl)oxy)-4-methylpent-3-en-1-yl)-2,3,4,7-tetrahydrooxepine-2-carboxylic acid]",> 160 µM,> 160 µM,,> 160 µM,,> 160 µM,,,,,
"C/C(=C\CC/C(=C/CC/C(=C/Cc1cc(O)ccc1O)C(=O)O)CO)COC(=O)/C=C/c1ccc(O)cc1 [Compound 3, (2Z,5Z,9E)-2-(2-(2,5-dihydroxyphenyl)ethylidene)-6-(hydroxymethyl)-11-(((E)-3-(4-hydroxyphenyl)acryloyl)oxy)-10-methylundeca-5,9-dienoic acid]",> 160 µM,> 160 µM,,> 160 µM,,> 160 µM,,,,,
"C/C(=C\C[C@H](O)/C(=C/CCC1=C[C@H](c2cc(O)ccc2O)OC1=O)CO)COC(=O)/C=C/c1ccc(O)cc1 [Compound 5, (E)-(S,2E,6E)-9-((R)-5-(2,5-dihydroxyphenyl)-2-oxo-2,5-dihydrofuran-3-yl)-5-hydroxy-6-(hydroxymethyl)-2-methylnona-2,6-dien-1-yl 3-(4-hydroxyphenyl)acrylate]",> 160 µM,76.3 ± 1.93 µM,,> 160 µM,,59.2 ± 2.73 µM,sensitive,sensitive,,,
"C/C(=C\C[C@H](O)/C(=C/CCC1=C[C@@H](c2cc(O)ccc2O)OC1=O)CO)COC(=O)/C=C/c1ccc(O)cc1 [Compound 6, (E)-(S,2E,6E)-9-((S)-5-(2,5-dihydroxyphenyl)-2-oxo-2,5-dihydrofuran-3-yl)-5-hydroxy-6-(hydroxymethyl)-2-methylnona-2,6-dien-1-yl 3-(4-hydroxyphenyl)acrylate]",> 160 µM,85.4 ± 2.82 µM,,> 160 µM,,64.25 ± 0.37 µM,sensitive,sensitive,,,
"C/C(=C\CCC1=CCC[C@@](CC(=O)c2cc(O)ccc2O)(C(=O)O)OC1)COC(=O)/C=C/c1ccc(O)cc1 [(−)-2, (R)-2-(2-(2,5-dihydroxyphenyl)-2-oxoethyl)-6-((E)-5-(((E)-3-(4-hydroxyphenyl)acryloyl)oxy)-4-methylpent-3-en-1-yl)-2,3,4,7-tetrahydrooxepine-2-carboxylic acid]",> 160 µM,> 160 µM,,> 160 µM,,> 160 µM,,,,,
"O=c1[nH]cc(F)c(=O)[nH]1 [Compound 5-FU, reference compound]",,,35 ± 2.42 µM,,,,,,51.1 ± 2.43 µM,8.43 ± 0.19 µM,37.7 ± 1.87 µM
